Measured values taken from patent publication US11378572B2, “Therapeutic agent for immune cell migration-caused disease and method for screening same” (ZYMEDI CO., LTD., priority 2017, dated 2022).

Test system: Dahl salt-sensitive (SS) rats
Experiment: Dahl salt-sensitive (SS) rat on high salt diet
Type: in vivo
Protocol: Experiments were performed using male Dahl SS rats at 9-12 weeks of age. These animals were provided by the University of Mississippi Medical Center and approved by the American Association for Accreditation of Laboratory Animal Care (AAALAC). All protocols were approved by the Institutional Animal Care and Use Committee of the University of Mississippi Medical Center. Rats were fed ad libitum, and these rats were provided with a purified AIN-76 rodent feed containing 0.4% NaCl (Dyets, Bethlehem, Pa.) after weaning. Dahl salt-sensitive (SS) rat is an animal model that rapidly develops high hypertension, proteinuria, glomerulosclerosis and renal interstitial fibrosis on high salt (HS) diet.
Dahl SS rats were anesthetized with isoflurane and telemetry transmitters (model TA11PAC40, Data Sciences International, St. Paul, Minn.) were aseptically implanted in the same manner as described above. After surgery, rats were housed in individual cages in a quiet air-conditioned room environment with a 12:12 hour light-dark cycle and it took a week to fully recover from surgery. Then, the baseline mean arterial blood pressure (MAP) was measured before the rats were placed in the metabolic cage to measure urine protein excretion. Proteinuria was measured using the Bradford method and BSA (Bio-Rad Laboratories, Hercules, Calif.) as a standard.
Rats were then randomly divided into two experimental groups: Group 1 (n=15) was treated with BC-KI-00053 (25 mg/kg daily) by gastrointestinal gavage; Group 2 (n=15) was administered by gastrointestinal gavage with the same volume (2.5 ml/kg per day) of vehicle (corn oil, polyethylene glycol 400, Tween 80 and methyl cellulose). Simultaneously with the administration of agents, feed was changed to HS feed containing 8% NaCl (Dyets, Bethlehem, Pa.) and blood pressure and proteinuria were measured at 7, 14 and 21 days after starting HS feed. At the end of the experiment, rats were anesthetized with isoflurane and blood samples were taken to measure creatinine levels. Rats were then flushed with 50 ml of 0.9% NaCl through the aorta and perfused with 20 ml of 4% paraformaldehyde. Kidneys and hearts were collected for histological evaluation.
Paraffin section preparation and evaluations of the degree of glomerular damage, cortex and medulla fibrosis were performed as described above. In addition, immunohistochemical staining (IHC) for CD68, a monocyte/macrophage marker for kidney tissue, was performed in the same manner as in Example 8.
Statistics: Each data is expressed as mean±SEM. Comparison between groups was analyzed by two-tailed test. P value p<0.05 was considered statistically significant.

## COc1ccc(CCN(Cc2ccc(C(=O)O)cc2)c2nc3cccc(F)c3s2)cc1 [BC-KI-00053, 4-({(7-fluorobenzo[d]thiazol-2-yl)[2-(4-methoxyphenyl)ethyl]amino}methyl)benzoic acid]
25 mg/kg daily 3 weeks
  cortical fibrosis: 6.47±0.46%
  renal medulla fibrosis: 12.33±0.78%
  renal tissue infiltration of monocytes/macrophages (CD68 IHC): significantly reduced
25 mg/kg daily 3 weeks, Sirius red
  cardiac fibrosis: 6.63±0.94%
25 mg/kg daily 3 weeks, score 0 to 4+
  mean glomerular injury score: 1.34±0.04
25 mg/kg daily gavage, 3 weeks
  body weight during the study period: maintained or increased slightly
25 mg/kg daily, after 2 weeks of treatment, HS diet
  MAP: 164.43±3.00 mmHg
25 mg/kg daily, after one week of treatment, HS diet
  proteinuria: 302.86 ± 29.76 mg/day
25 mg/kg daily, after two weeks of treatment, HS diet
  proteinuria: 510.64 ± 42.42 mg/day
25 mg/kg daily, end of experiment
  plasma creatinine concentration: 0.55 ± 0.01 mg/dL
25 mg/kg daily, end of study, HS diet
  proteinuria: 524.55 ± 44.70 mg/day
25 mg/kg daily, study completed (21 days), HS diet
  MAP: 178.48±3.49 mmHg
baseline, before treatment
  MAP: 123.45±2.36 mmHg
  proteinuria: 113.27 ± 8.06 mg/day
baseline, before treatment, mean±SEM
  baseline body weight: 350.13 ± 9.173 g
